{
  "source": "patent US20060094755A1",
  "about": "“Novel quinoline-based metal chelators as antiviral agents” (Bioflexis, LLC, priority 2004, published 2006)",
  "key": {"HIV-1 MC99IIIBΔTat-Rev": {"tested_on": "HIV-1 MC99IIIBΔTat-Rev", "experiment": "viral inhibition assay (p24 ELISA, CEM-TART cells), FIG. 4", "assay_type": "cell-based", "settings": "Human immunodeficiency virus 1", "description": "The novel compounds of the present invention can be further evaluated for their ability to inhibit viral replication in ex-vivo assays. Most common of these include determining the viral replication in either purified human CD4+ T cell blasts infected with HIV in the presence or absence of various concentrations of inhibitors or HIV infected MT4 cell line treated with different concentration of inhibitors. A standard laboratory method in screening for inhibitors against HIV in biological assays involves the use of recombinant HIV strain that can replicate only in the supporting complementing cell line. This model system allows the examination of HIV viral replication in a biologically contained manner and is suitable for inhibitor screening. The method is described briefly below. The recombinant HIV-1 strain (HIV-1 MC99IIIBΔTat-Rev; NIH Aids Reagent Program, catalog No: 1943) is genetically engineered to replicate only in supporting recombinant cell lines (CEM-TART Cells, NIH Aids Reagent Program catalog No 1944). The construction of the recombinant mutant virus, the supporting cell line and the biological assay are described in detail elsewhere. […] The extent of viral replication can be determined by measuring the soluble viral p24 protein present in the culture supernatant collected at 24, 48, 72 and 96-hr post infection using commercial ELISA kits."}, "IN (integrase)": {"target": "T1, IN (integrase) (Human immunodeficiency virus type 1 group M subtype B, UniProt P12497)", "T1 construct": "HIV-1 recombinant IN (HIV-1NL4-3 Integrase, NIH AIDS Reagent program Catalog No:2959); purchased NIH AIDS Reagent program 2959", "settings": "cited from earlier work"}, "HIV": {"tested_on": "HIV", "settings": "ex-vivo viral inhibition assay; cited from earlier work"}},
  "data": [
    {"smiles": "O=C(O)CN(CCN(CCN(CC(=O)O)CC(=O)O)Cc1ccc2cccc(O)c2n1)CC(=O)O", "note": "[Compound 16]", "values": [
      {"measurement": "IC50", "setting": "HIV-1 MC99IIIBΔTat-Rev", "value": 19.3, "unit": "µM"}
    ]},
    {"smiles": "O=C(O)C(=O)CC(=O)c1cccn1Cc1ccc(F)cc1", "note": "[Compound 8]", "values": [
      {"measurement": "inhibition of 3′ processing", "setting": "IN (integrase)", "value": "do not inhibit 3′ processing"},
      {"measurement": "inhibition of strand transfer reaction", "setting": "IN (integrase)", "value": "inhibit strand transfer reaction"}
    ]},
    {"smiles": "O=C(O)C(=O)CC(=O)c1cc(OCc2ccccc2)cc(OCc2ccccc2)c1", "note": "[Compound 6]", "values": [
      {"measurement": "inhibition of 3′ processing", "setting": "IN (integrase)", "value": "do not inhibit 3′ processing"},
      {"measurement": "inhibition of strand transfer reaction", "setting": "IN (integrase)", "value": "inhibit strand transfer reaction"}
    ]},
    {"smiles": "O=C(/C=C(\\O)c1nn[nH]n1)c1c[nH]c2ccc(Cl)cc12", "note": "[Compound 10]", "values": [
      {"measurement": "inhibition of 3′ processing", "setting": "IN (integrase)", "value": "inhibit both reactions"},
      {"measurement": "inhibition of strand transfer reaction", "setting": "IN (integrase)", "value": "inhibit both reactions"},
      {"measurement": "EC50", "setting": "HIV", "value": 0.7, "unit": "µM"}
    ]}
  ]
}
